Measured values reported in patent publication US20100173983A1, “METHOD FOR INDUCING AUTOPHAGY” (priority 2007, published 2010).

How the values were obtained:
[1] = system: Bax; assay: Western blot of R-182 mitochondrial extracts, Bax; assay type: cell-based, Human; settings: R-182 cells, 5 μg/ml over 24 hr
From the text: (§1) FIG. 8. Molecular evidence of autophagic cell death in R-182 ovarian cancer cells induced by Cpd 1. […] B, Beclin 1 binds to Bcl-2. Immunoprecipitation study using mitochondrial preparations of cells pre-treated with Cpd 1 as stated in A, and subjected to beclin 1 immunoprecitation. Immunoprecipitated fractions were washed in PBS, subjected to SDS-PAGE, blotted and then probed with a mouse anti-Bcl-2 antibody. Actin and Topo-1 were used as loading control. C, Depolarized cells resulting from over-expression of Bax and Beclin 1 following administration of Cpd 1. Cells were treated with Cpd 1 as described in A, pelleted and washed in HBSS and the cell pellet resuspended in the reaction buffer for JC-1 (Biovision, Inc. MitoCapture™ K250-100). HBSS-washed cells were analysed by flow cytometry (λexcit=488 nm and (λemit=530 nm for green fluorescence (depolarized) or 590 nm for red fluorescence (polarized). 10,000 gated events were measured with a BD FACScalibur. Results were expressed as mean±standard deviation (n=3).
(§2) After treatment with Cpd 1, protein was extracted from cells and measured as previously described (Kamsteeg et al., 2003). For separation of the cytoplasmic and mitochondrial fractions, cell pellets were processed using the ApoAlert Cell Fractionation kit (Promega) according to the manufacturer's instructions. […]

[2] = system: Beclin 1; assay: Western blot of R-182 mitochondrial extracts, Beclin 1; assay type: cell-based, Human; settings: R-182 cells, 5 μg/ml over 24 hr
From the text: as §1, §2

[3] = system: endonuclease G; assay: Immunohistology of xenograft tumour sections, endonuclease G; assay type: in vivo, SCID mice; settings: 100 mg/kg, compared to control
Experimental: FIG. 11. Cpd 1 markers of autophagy observed in in vitro studies are also present in vivo. […] T-S6K served as loading control.
(§3) In vivo studies using tumour-bearing mice were conducted to further confirm that Cpd 1 induces programmed cell death via an autophagic process. SCID mice bearing chemoresistant epithelial ovarian cancer (EOC) xenografts derived from a primary cell culture of a patient's ascites were administered with increasing doses of Cpd 1 by intraperotineal injection resulting in reductions in both tumor volume and tumor weight (data not shown). Representative tumours excised from these mice and tumour-bearing mice administered vehicle control were then fixed, sectioned and subjected to immunohistopathology analysis using an α-enodonuclease G directed monoclonal antibody. Tumor samples were blocked with either 10% horse or goat serum in PBS for 1 hour at room temperature. Following three washes with PBS, samples were incubated overnight at 4° C. with either the anti-EndoG (LifeSpan Bioscience) antibody or mouse IgG1 isotype as negative controls. After three washes with PBS, specific staining was detected by incubating with a peroxidase-conjugated horse anti-mouse antibody (1:1000 dilution) for 1 hour followed by a five-minute incubation with DAB substrate (Vector Laboratories). […]

[4] = system: chemoresistant epithelial ovarian cancer (EOC) xenografts; assay: EOC xenograft in SCID mice, tumour growth; assay type: in vivo; settings: increasing doses, intraperitoneal injection; data not shown
Experimental: as §3, with “Laboratories). Tissue sections were then counterstained with haematoxylin (Sigma Chemical Co.) before dehydration with ethanol and Histosolve (Shandon Inc., Pittsburgh, Pa.).” for “Laboratories).”

[5] = system: caspase 9; assay: Caspase-Glo 9 assay in R182 cells; assay type: cell-based, Human; settings: R182 ovarian cancer explants; dose response and duration of exposure (5 μg/ml, 0-25 hr)
Experimental: FIG. 3. Comparative induction of caspase 9 in R182 ovarian cancer explants by Cpd 1 and dehydroequol using either dose response (A) or duration of exposure (B). Caspase 9 activity was assessed using the Caspase-Glo 9 assay.
(§4) For caspase activity assays, 10 μg of protein in 50 μL total volume was mixed with 50 μL of equilibrated Caspase-Glo 3/7, 8, or 9 reagents (Promega). After incubating at room temperature for 1 hour, luminescence was measured using TD 20/20 Luminometer (Turner Designs, Sunnyvale, Calif.). Blank values were subtracted and fold-increase in activity was calculated based on activity measured from untreated cells. Each sample was measured in triplicate.

[6] = system: caspase 3; assay: Caspase-Glo 3/7 assay in R182 cells; assay type: cell-based, Human; settings: R182 ovarian cancer explants; dose response and duration of exposure (5 μg/ml, 0-25 hr)
Experimental: FIG. 2. Comparative induction of caspase 3 in R182 ovarian cancer explants by Cpd 1 and dehydroequol using either dose response (A) or duration of exposure (B). Caspase 3 activity was assessed using the Caspase-Glo 3/7 assays.
as §4

[7] = system: caspase 8; assay: Caspase-Glo 8 assay in R182 cells; assay type: cell-based, Human; settings: R182 ovarian cancer explants; dose response and duration of exposure (5 μg/ml, 0-25 hr)
Experimental: FIG. 4. Comparative induction of caspase 8 in R182 ovarian cancer explants by Cpd 1 and dehydroequol using either dose response (A) or duration of exposure (B). Caspase 8 activity was assessed using the Caspase-Glo 8 assay.
as §4

In the case of `COc1ccc([C@H]2c3ccc(O)c(C)c3OC[C@H]2c2ccc(O)cc2)cc1` (stereo in doubt) [Cpd 1, 3-(4-hydroxyphenyl)-4-(4-methoxyphenyl)-8-methylchroman-7-ol], the “expression of Bax in mitochondrial extracts” value [1] is reported as “markedly upregulated over time”, the “mitochondrial content of beclin-1” value [2] is reported as “transiently increased” and the “expression of nuclear endonuclease G in tumour sections” value [3] is reported as “increased”. For the same compound, the tumor volume [4] was “reductions”, the tumor weight [4] was “reductions” and the “caspase 9 activity” value [5] was “did not induce caspase 9 activity”. The “caspase 3 activity” value [6] was “did not induce caspase 3 activity” and the “caspase 8 activity” value [7] was “did not induce caspase 8 activity”.
